Our source for the IC50 values is patent US11479551B2, “MTA-cooperative PRMT5 inhibitors” (Mirati Therapeutics, Inc., priority 2019, dated 2022).

For test [1], the target named is T1, PRMT5/MEP50 complex (Homo sapiens (Human), UniProt O14744). As to the kind of experiment: PRMT5:MEP50 FlashPlate Assay (histone H4 peptide substrate, plus and minus MTA). The test is classed as biochemical. On the procedure: (§1) The PRMT5 inhibitory activity of compounds of the present invention was determined using either a PRMT5:MEP50 FlashPlate Assay (Reaction Biology Corporation) or a PRMT5:MEP50 HotSpot Assay (Reaction Biology Corporation).
1. PRMT5:MEP50 FlashPlate Assay

The target in test [2] is T1, PRMT5/MEP50 complex. As to the kind of experiment: PRMT5:MEP50 HotSpot Assay (full-length histone H2A substrate, plus and minus MTA). Type of test: biochemical. On the procedure: as §1
The assay uses recombinant full-length histone H2A as the PRMT5 substrate. […] The reaction was stopped and transferred to filter paper for detection. The amount of tritiated H2A in each sample was determined using a scintillation counter.

Setting [3] is: IC50 + 2 μM MTA (nM), in the presence of 2 μM MTA.
Setting [4] is: in the absence of MTA, read-out: IC50.
Where [5] appears, read: IC50 + 2 μM MTA, in the presence of 2 μM MTA.

Values joined by “and” are separate entries in the source; they are usually repeats but may differ in a detail not shown here. Identical values can stand only once.

T1 sequence (O14744 2-637): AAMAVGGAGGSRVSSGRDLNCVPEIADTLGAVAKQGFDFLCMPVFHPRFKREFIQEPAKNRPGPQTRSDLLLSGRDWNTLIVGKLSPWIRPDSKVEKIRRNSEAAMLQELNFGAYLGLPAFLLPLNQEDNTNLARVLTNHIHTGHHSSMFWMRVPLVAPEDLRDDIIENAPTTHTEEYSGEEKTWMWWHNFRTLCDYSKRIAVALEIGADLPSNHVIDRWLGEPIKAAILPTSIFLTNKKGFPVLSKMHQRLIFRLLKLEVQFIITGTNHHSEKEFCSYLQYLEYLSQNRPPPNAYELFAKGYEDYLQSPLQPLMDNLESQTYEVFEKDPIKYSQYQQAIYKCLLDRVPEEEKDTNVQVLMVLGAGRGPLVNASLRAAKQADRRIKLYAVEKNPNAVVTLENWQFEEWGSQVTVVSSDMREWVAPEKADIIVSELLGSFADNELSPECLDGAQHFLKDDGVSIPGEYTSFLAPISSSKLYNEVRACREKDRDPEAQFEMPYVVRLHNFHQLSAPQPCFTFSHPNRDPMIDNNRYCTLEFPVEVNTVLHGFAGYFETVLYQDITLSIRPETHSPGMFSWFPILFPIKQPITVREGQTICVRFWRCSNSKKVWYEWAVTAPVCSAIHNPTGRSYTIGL
T1 sequence (Q9BQA1 2-342 partner): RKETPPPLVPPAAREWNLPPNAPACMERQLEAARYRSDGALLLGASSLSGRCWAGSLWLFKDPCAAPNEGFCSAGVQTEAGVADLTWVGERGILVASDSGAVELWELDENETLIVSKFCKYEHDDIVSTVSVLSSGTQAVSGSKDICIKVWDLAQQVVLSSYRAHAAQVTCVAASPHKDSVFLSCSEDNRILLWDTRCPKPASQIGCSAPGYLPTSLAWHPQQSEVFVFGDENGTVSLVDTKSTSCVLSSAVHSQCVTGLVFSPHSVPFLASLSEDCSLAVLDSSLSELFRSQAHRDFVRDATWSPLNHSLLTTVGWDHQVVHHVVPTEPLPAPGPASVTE

As to `NCc1n[nH]c(=O)c2ccc(-c3cncc(C(O)c4ccccc4)c3)cc12` (stereo not drawn) [Example 4-51, 4-(aminomethyl)-6-(5-(hydroxy(phenyl)methyl)pyridin-3-yl)phthalazin-1(2H)-one], the IC50 was 5.8 nM in test [1] (setting [3]), 530 nM in test [1] (setting [4]), 1510 nM in test [2] (setting [5]) and above 10000 nM in test [2] (setting [4]).
In the case of `NCc1n[nH]c(=O)c2ccc(-c3cnc4[nH]cc(Cl)c4c3)cc12` [Example 4-44, 4-(aminomethyl)-6-(3-chloro-1H-pyrrolo[2,3-b]pyridin-5-yl)phthalazin-1(2H)-one], the IC50 in test [1] (setting [3]) is 5.4 nM; in test [1] (setting [4]), 691 nM; in test [2] (setting [5]) it was 6830 nM; in test [2] (setting [4]), above 10000 nM.
For `Cn1ncc(-c2ccc3c(=O)[nH]nc(CN)c3c2)c1-c1ccccc1` [Example 4-32, 4-(aminomethyl)-6-(1-methyl-5-phenyl-1H-pyrazol-4-yl)phthalazin-1(2H)-one] the same measures were 1.6 nM, 45 nM, 2040 nM and above 10000 nM.
For `Cn1ncc(-c2ccc3c(=O)[nH]nc(CN)c3c2)c1-c1ccc(Cl)cc1` [Example 4-96, 4-(aminomethyl)-6-(5-(4-chlorophenyl)-1-methyl-1H-pyrazol-4-yl)phthalazin-1(2H)-one] the same measures were 3.9 nM, 116 nM, 868 nM and above 10000 nM.
For the compound `Cn1ncc(-c2ccc3c(=O)[nH]nc(CN)c3c2)c1OCc1ccccc1Cl` [Example 4-154, 4-(aminomethyl)-6-(5-((2-chlorobenzyl)oxy)-1-methyl-1H-pyrazol-4-yl)phthalazin-1(2H)-one], the IC50 in test [2] (setting [5]) worked out at 3280 nM.
Take `Cn1ncc(-c2ccc3c(=O)[nH]nc(CN)c3c2)c1-c1ccc(OC2CC2)cc1` [Example 4-136, 4-(aminomethyl)-6-(5-(4-cyclopropoxyphenyl)-1-methyl-1H-pyrazol-4-yl)phthalazin-1(2H)-one]: the IC50 in test [2] (setting [5]) turned out to be 872 nM.
Regarding `COc1cc(Cl)cc(-c2c(-c3ccc4c(=O)[nH]nc(CN)c4c3)cnn2C)c1C#N` [Example 4-168, 2-(4-(4-(aminomethyl)-1-oxo-1,2-dihydrophthalazin-6-yl)-1-methyl-1H-pyrazol-5-yl)-4-chloro-6-methoxybenzonitrile], in test [2] (setting [5]), the IC50 was found to be 1370 nM.
Turning to `Cn1ncc(-c2ccc3c(=O)[nH]nc(CN)c3c2)c1-c1cccc[n+]1[O-]` [Example 4-120, 2-(4-(4-(aminomethyl)-1-oxo-1,2-dihydrophthalazin-6-yl)-1-methyl-1H-pyrazol-5-yl)pyridine 1-oxide], the IC50 in test [2] (setting [5]) was above 10000 nM.
Still for that read-out and setting: next, `Cn1ncc(-c2ccc3c(=O)[nH]nc(CN)c3c2)c1OCc1c(Cl)cccc1C#N` [Example 4-174, 2-(((4-(4-(aminomethyl)-1-oxo-1,2-dihydrophthalazin-6-yl)-1-methyl-1H-pyrazol-5-yl)oxy)methyl)-3-chlorobenzonitrile]: above 10000 nM.
On the same count and under the same terms, with `CCc1ccc(-c2c(-c3ccc4c(=O)[nH]nc(CN)c4c3)cnn2C)cc1` [Example 4-134, 4-(aminomethyl)-6-(5-(4-ethylphenyl)-1-methyl-1H-pyrazol-4-yl)phthalazin-1(2H)-one] the figure was 2730 nM.
As to `COc1ccc(-c2c(-c3ccc4c(=O)[nH]nc(CN)c4c3)cnn2C)c(C#N)c1C` [Example 4-179, 6-(4-(4-(aminomethyl)-1-oxo-1,2-dihydrophthalazin-6-yl)-1-methyl-1H-pyrazol-5-yl)-3-methoxy-2-methylbenzonitrile], the IC50 in test [2] (setting [5]) worked out at 1240 nM.
On to `Cn1ncc(-c2ccc3c(=O)[nH]nc(CN)c3c2)c1-c1cc2ncccc2cc1C#N` [Example 4-167, 7-(4-(4-(aminomethyl)-1-oxo-1,2-dihydrophthalazin-6-yl)-1-methyl-1H-pyrazol-5-yl)quinoline-6-carbonitrile], for which the IC50 in test [2] (setting [5]) amounted to 6620 nM.
Still for that read-out and setting: next, `Cn1ncc(-c2ccc3c(=O)[nH]nc(CN)c3c2)c1-c1c(Cl)cccc1Cl` [Example 4-144, 4-(aminomethyl)-6-(5-(2,6-dichlorophenyl)-1-methyl-1H-pyrazol-4-yl)phthalazin-1(2H)-one]: 454 nM; `Cn1ncc(-c2ccc3c(=O)[nH]nc(CN)c3c2)c1-c1ccccc1Cl` [Example 4-143, 4-(aminomethyl)-6-(5-(2-chlorophenyl)-1-methyl-1H-pyrazol-4-yl)phthalazin-1(2H)-one]: 1170 nM.
Same read-out and setting: next, `Cn1ncc(-c2ccc3c(=O)[nH]nc(CN)c3c2)c1OCc1cccc(Cl)c1` [Example 4-155, 4-(aminomethyl)-6-(5-((3-chlorobenzyl)oxy)-1-methyl-1H-pyrazol-4-yl)phthalazin-1(2H)-one]: 3460 nM.
Take `CC(C)Oc1cccc(-c2c(-c3ccc4c(=O)[nH]nc(CN)c4c3)cnn2C)c1C#N` [Example 4-176, 2-(4-(4-(aminomethyl)-1-oxo-1,2-dihydrophthalazin-6-yl)-1-methyl-1H-pyrazol-5-yl)-6-isopropoxybenzonitrile]: the IC50 in test [2] (setting [5]) was 8710 nM.
Consider `NCc1n[nH]c(=O)c2ccc(-c3cncc(C4CCCCC4)c3)cc12` [Example 14-1, 4-(aminomethyl)-6-(5-cyclohexyl-3-pyridyl)-2H-phthalazin-1-one], for which, in test [2] (setting [5]), the concentration for half-maximal inhibition (IC50) is above 10000 nM.
For `Cn1ncc(-c2ccc3c(=O)[nH]nc(CN)c3c2)c1-c1c(F)cccc1C#N` [Example 4-152, 2-(4-(4-(aminomethyl)-1-oxo-1,2-dihydrophthalazin-6-yl)-1-methyl-1H-pyrazol-5-yl)-3-fluorobenzonitrile], the IC50 in test [2] (setting [5]) is 978 nM and 1910 nM.
The same measure, in the same setting: next, `CCc1cccc(-c2c(-c3ccc4c(=O)[nH]nc(CN)c4c3)cnn2C)c1C#N` [Example 4-123, 2-(4-(4-(aminomethyl)-1-oxo-1,2-dihydrophthalazin-6-yl)-1-methyl-1H-pyrazol-5-yl)-6-ethylbenzonitrile]: 549 nM.
The same measure, in the same setting: next, `COc1cc(C#N)c(-c2c(-c3ccc4c(=O)[nH]nc(CN)c4c3)cnn2C)cc1Cl` [Example 4-133, 2-(4-(4-(aminomethyl)-1-oxo-1,2-dihydrophthalazin-6-yl)-1-methyl-1H-pyrazol-5-yl)-4-chloro-5-methoxybenzonitrile]: 1570 nM; `Cn1ncc(-c2ccc3c(=O)[nH]nc(CN)c3c2)c1-c1cccc(OC2CC2)c1C#N` [Example 4-175, 2-(4-(4-(aminomethyl)-1-oxo-1,2-dihydrophthalazin-6-yl)-1-methyl-1H-pyrazol-5-yl)-6-cyclopropoxybenzonitrile]: 1120 nM; `Cn1ncc(-c2ccc3c(=O)[nH]nc(CN)c3c2)c1-c1cc(Cl)cc(Cl)c1C#N` [Example 4-165, 2-(4-(4-(aminomethyl)-1-oxo-1,2-dihydrophthalazin-6-yl)-1-methyl-1H-pyrazol-5-yl)-4,6-dichlorobenzonitrile]: 2410 nM.
On to `Cn1ncc(-c2ccc3c(=O)[nH]nc(CN)c3c2)c1OCc1ccc(Cl)cc1` [Example 4-156, 4-(aminomethyl)-6-(5-((4-chlorobenzyl)oxy)-1-methyl-1H-pyrazol-4-yl)phthalazin-1(2H)-one], for which the IC50 in test [2] (setting [5]) was 9130 nM.
As for `N#Cc1ccccc1-c1c(-c2ccc3c(=O)[nH]nc(CN)c3c2)cnn1CCO` [Example 4-193, 2-(4-(4-(aminomethyl)-1-oxo-1,2-dihydrophthalazin-6-yl)-1-(2-hydroxyethyl)-1H-pyrazol-5-yl)benzonitrile], the IC50 in test [2] (setting [5]) was above 10000 nM.
Turning to `CCOc1ccn2ncc(-c3ccc4c(=O)[nH]nc(CN)c4c3)c2c1` [Example 4-112, 4-(aminomethyl)-6-(5-ethoxypyrazolo[1,5-a]pyridin-3-yl)phthalazin-1(2H)-one], in test [2] (setting [5]), the IC50 was 1020 nM.
As for `Cc1cccc(-c2c(-c3ccc4c(=O)[nH]nc(CN)c4c3)cnn2C)c1C#N` [Example 4-118, 2-(4-(4-(aminomethyl)-1-oxo-1,2-dihydrophthalazin-6-yl)-1-methyl-1H-pyrazol-5-yl)-6-methylbenzonitrile], the results for the IC50 in test [2] (setting [5]) and in test [2] (setting [4]) were 724 nM and 9920 nM, respectively.
Consider `Cn1ncc(-c2ccc3c(=O)[nH]nc(CN)c3c2)c1CCc1ccccc1` [Example 4-117, 4-(aminomethyl)-6-(1-methyl-5-phenethyl-1H-pyrazol-4-yl)phthalazin-1(2H)-one], for which the half-inhibitory concentration (IC50) in test [2] (setting [5]) turned out to be 536 nM.
Consider `Cn1ncc(-c2ccc3c(=O)[nH]nc(CN)c3c2)c1-c1ccc(C2CC2)cc1C#N` [Example 4-126, 2-(4-(4-(aminomethyl)-1-oxo-1,2-dihydrophthalazin-6-yl)-1-methyl-1H-pyrazol-5-yl)-5-cyclopropylbenzonitrile], for which, in test [2] (setting [5]), the IC50 came to 361 nM.
Same read-out and setting: with `Cn1ncc(-c2ccc3c(=O)[nH]nc(CN)c3c2)c1-c1cc2cccnc2cc1C#N` [Example 4-166, 6-(4-(4-(aminomethyl)-1-oxo-1,2-dihydrophthalazin-6-yl)-1-methyl-1H-pyrazol-5-yl)quinoline-7-carbonitrile] the figure was 4510 nM; with `Cn1ncc(-c2ccc3c(=O)[nH]nc(CN)c3c2)c1OCC1CC1` [Example 4-116, 4-(aminomethyl)-6-(5-(cyclopropylmethoxy)-1-methyl-1H-pyrazol-4-yl)phthalazin-1(2H)-one], 1080 nM; with `CCOc1ccc(-c2c(-c3ccc4c(=O)[nH]nc(CN)c4c3)cnn2C)c(C#N)c1` [Example 4-173, 2-(4-(4-(aminomethyl)-1-oxo-1,2-dihydrophthalazin-6-yl)-1-methyl-1H-pyrazol-5-yl)-5-ethoxybenzonitrile], 1600 nM.
Take `CCCOc1cccc(-c2c(-c3ccc4c(=O)[nH]nc(CN)c4c3)cnn2C)c1C#N` [Example 4-178, 2-(4-(4-(aminomethyl)-1-oxo-1,2-dihydrophthalazin-6-yl)-1-methyl-1H-pyrazol-5-yl)-6-propoxybenzonitrile]: in test [2] (setting [5]), the 50% inhibitory concentration (IC50) stood at 4880 nM.
